Data from the NIST ThermoML archive (doi:10.1021/je9009915).

Settings: Liquid

FCC(F)(F)F [1,1,1,2-tetrafluoroethane]
Settings | vapor or sublimation pressure [kPa]
303.45 K | 775.7
308.44 K | 892.2
313.3 K | 1018.8
318.39 K | 1165.4
323.3 K | 1319
328.26 K | 1492.4
333.3 K | 1683.7
338.24 K | 1889.6
343.23 K | 2115.3
